Experimental data reported in patent publication US20110230431A1, “FOSFOMYCIN/TOBRAMYCIN COMBINATIONS FOR THE TREATMENT AND PREVENTION OF OPHTHALMIC, OTOLOGICAL AND DERMATOLOGICAL INFECTIONS” (Gilead Sciences, Inc., priority 2008, published 2011).
Like-named read-outs stand apart in the source and are kept apart here.

What was measured:
[1] = system: S. aureus; assay: MIC by agar plate dilution method (CLSI); assay type: cell-based, Staphylococcus aureus
Excerpt: P. aeruginosa strains isolated from patients with cystic fibrosis (CF) were obtained from Children's Hospital and Regional Medical Center (Seattle, Wash.). Clinical isolates of Escherichia coli and Staphylococcus aureus were obtained from The Jones Group Laboratories (JMI; North Liberty, Iowa) and The Clinical Microbiology Institute (CMI; Wilsonville, Oreg.). P. aeruginosa 27853, S. aureus 29213, and E. coli 25922 served as quality control strains^1 and were obtained from The America Type Culture Collection (ATCC; Manassas, Va.). P. aeruginosa ATCC 27853, a fosfomycin and tobramycin susceptible strain, was used in macromolecular biosynthesis and tobramycin uptake experiments. Stock cultures were maintained at −80° C. in Cation-Adjusted Mueller-Hinton Broth (CAMHB) (Remel; Lenexa, Kans.) supplemented with 20% glycerol (VWR: West Chester, Pa.). Cultures for routine use were grown on tryptic soy agar plates+5% sheeps blood (PML Microbiologicals Inc.; Wilsonville, Oreg.) and stored at 4° C.
MICs were determined by the agar plate dilution method according to CLSI guidelines (National Committee for Clinical Laboratory Standards. M7-A6. 6th ed. Villanova (Pa.): NCCLS, 2003; M100-S14. Villanova (Pa.): NCCLS, 2004).

[2] = system: P. aeruginosa ATCC 27853; assay: Tobramycin uptake studies (3H-tobramycin); assay type: cell-based, Pseudomonas aeruginosa; conditions: 10 μg/mL fosfomycin, 3H-tobramycin 2.3 μg/mL, FIG. 7
Protocol: The effects of fosfomycin uptake on tobramycin uptake were determined by measuring uptake of ^3H-tobramycin. A single colony of P. aeruginosa ATCC 27853 was inoculated into 5 mL nutrient broth (NB) (Difco & BBL; Sparks, Md.) and grown overnight at 37° C. with shaking (250 rpm). […] Five milliliter volumes were filtered through 0.45 μm nitrocellulose membrane filters (Whatman Inc., Florham Park, N.J.), pre-soaked with 410 mM MgCl2 (VWR). […] Data were expressed in CPM and represent the mean±SD of four independent experiments. Statistical differences were evaluated by the Student's t-test.

[3] = system: S. aureus; assay type: cell-based, Staphylococcus aureus
Protocol: Development of resistance after a single exposure to antibiotic was determined for both clinical and reference isolates of P. aeruginosa, S. aureus, and E. coli. Late Log-phase cultures were centrifuged at 1,400×g at room temperature for 20 min and the cell pellets resuspended in CAMHB. […] The culture plates were incubated at 37° C. for 48 h and the number of colonies on each plate was enumerated manually. The spontaneous mutation frequency (SMF) resulting in antibiotic resistance was calculated by dividing the number of bacteria growing at the defined antibiotic concentration by the number of bacteria in the inoculum (Martinex, J L, Antimicrob Agents Chemother 2000; 44 (1):1771-1777).

| Compound | Frequency of Resistance 4× MIC ([3]; S. aureus ATCC 29213, 4× MIC) | Frequency of Resistance 8× MIC ([3]; S. aureus ATCC 29213, 8× MIC) | Frequency of Resistance 16× MIC ([3]; S. aureus ATCC 29213, 16× MIC) | Frequency of Resistance 4× MIC ([3]; S. aureus C051, 4× MIC) | Frequency of Resistance 8× MIC ([3]; S. aureus C051, 8× MIC) | Frequency of Resistance 16× MIC ([3]; S. aureus C051, 16× MIC) | Frequency of Resistance 4× MIC ([3]; S. aureus C053, 4× MIC) | Frequency of Resistance 16× MIC ([3]; S. aureus C053, 16× MIC) | Frequency of Resistance 4× MIC ([3]; S. aureus C055, 4× MIC) | Frequency of Resistance 8× MIC ([3]; S. aureus C055, 8× MIC) | Frequency of Resistance 16× MIC ([3]; S. aureus C055, 16× MIC) | Frequency of Resistance 4× MIC ([3]; S. aureus C057, 4× MIC) | Frequency of Resistance 8× MIC ([3]; S. aureus C057, 8× MIC) | Frequency of Resistance 16× MIC ([3]; S. aureus C057, 16× MIC) | also measured |
| --- | --- | --- | --- | --- | --- | --- | --- | --- | --- | --- | --- | --- | --- | --- | --- |
| C[C@@H]1O[C@@H]1P(=O)(O)O [Fosfomycin, fosfomycin disodium] | 2.6 × 10^−8 | 5.0 × 10^−8 | <1.8 × 10^−10 | 3.0 × 10^−5 | 3.6 × 10^−7 | 8.4 × 10^−6 | 7.7 × 10^−3 | 4.3 × 10^−6 | 2.5 × 10^−6 | <4.3 × 10^−9 | 8.2 × 10^−6 | 2.1 × 10^−5 | 1.1 × 10^−7 | 2.0 × 10^−7 | MIC ([1]; Staphylococcus aureus, ATCC29213, S. aureus ATCC 29213, read-out: MIC): 2 µg/mL; MIC ([1]; Staphylococcus aureus, S. aureus C051, read-out: MIC): 1 µg/mL; MIC ([1]; Staphylococcus aureus, S. aureus C053, read-out: MIC): 1 µg/mL; MIC ([1]; Staphylococcus aureus, S. aureus C055, read-out: MIC): 8 µg/mL; MIC ([1]; Staphylococcus aureus, S. aureus C057, read-out: MIC): 2 µg/mL; increase in 3H-tobramycin uptake relative to the no-fosfomycin control [2]: 170%; Frequency of Resistance 8× MIC ([3]; S. aureus C053, 8× MIC): 1.7 × 10^−7 |
| tobramycin sulfate | 1.6 × 10^−7 | 3.9 × 10^−8 | <1.8 × 10^−10 | 3.5 × 10^−6 | 1.5 × 10^−8 | <2.0 × 10^−10 | 2.0 × 10^−7 | <2.3 × 10^−10 | 3.8 × 10^−7 | <4.3 × 10^−9 | <2.3 × 10^−10 | 1.1 × 10^−6 | <1.4 × 10^−10 | <3.2 × 10^−10 | MIC ([1]; S. aureus ATCC 29213): 0.25 µg/mL; MIC ([1]; S. aureus C051): 0.25 µg/mL; MIC ([1]; S. aureus C053): 0.25 µg/mL; MIC ([1]; S. aureus C055): 0.25 µg/mL; MIC ([1]; S. aureus C057): 0.5 µg/mL |
